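Each compound was tested at five concentrations against cells in 96-well plates for 48 hours. The concentration for full growth arrest is given as TGI.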
Key:
Assay in all cases: inhibition of tumour cell growth, NCI panel, 48 h
OVCAR-8 ovarian = system: OVCAR-8 ovarian
KM12 colon = system: KM12 colon
EKVX NSCLC = system: EKVX NSCLC
IGROV1 ovarian = system: IGROV1 ovarian
MALME-3M melanoma = system: MALME-3M melanoma
SK-MEL-5 melanoma = system: SK-MEL-5 melanoma
LOX IMVI melanoma = system: LOX IMVI melanoma
HCT-15 colon = system: HCT-15 colon
NCI-H522 lung = system: NCI-H522 lung
HCC-2998 colon = system: HCC-2998 colon
HL-60(TB) leukemia = system: HL-60(TB) leukemia
SN12C renal = system: SN12C renal
U251 CNS = system: U251 CNS
BT-549 breast = system: BT-549 breast
MDA-N = system: MDA-N
SK-MEL-2 melanoma = system: SK-MEL-2 melanoma
DU-145 prostate = system: DU-145 prostate
UACC-257 melanoma = system: UACC-257 melanoma
COLO 205 colon = system: COLO 205 colon
M14 melanoma = system: M14 melanoma
OVCAR-4 ovarian = system: OVCAR-4 ovarian
NCI-H23 lung = system: NCI-H23 lung
CCRF-CEM leukemia = system: CCRF-CEM leukemia
OVCAR-3 ovarian = system: OVCAR-3 ovarian
ACHN renal = system: ACHN renal
HOP-62 NSCLC = system: HOP-62 NSCLC
K-562 leukemia = system: K-562 leukemia
HS 578T breast = system: HS 578T breast
SK-OV-3 ovarian = system: SK-OV-3 ovarian
SW-620 colon = system: SW-620 colon
RPMI-8226 leukemia = system: RPMI-8226 leukemia
SK-MEL-28 melanoma = system: SK-MEL-28 melanoma
PC-3 prostate = system: PC-3 prostate
TK-10 renal = system: TK-10 renal
SF-295 CNS = system: SF-295 CNS
UO-31 renal = system: UO-31 renal
A498 renal = system: A498 renal
SF-268 CNS = system: SF-268 CNS
RXF 393 renal = system: RXF 393 renal
HCT-116 colon = system: HCT-116 colon
HOP-92 NSCLC = system: HOP-92 NSCLC
NCI-H460 lung = system: NCI-H460 lung
UACC-62 melanoma = system: UACC-62 melanoma
MOLT-4 leukemia = system: MOLT-4 leukemia
OVCAR-5 ovarian = system: OVCAR-5 ovarian
HT29 colon = system: HT29 colon
MCF7 breast = system: MCF7 breast
SNB-19 CNS = system: SNB-19 CNS
T-47D breast = system: T-47D breast
CAKI-1 renal = system: CAKI-1 renal
NCI/ADR-RES ovarian = system: NCI/ADR-RES ovarian
A549 NSCLC = system: A549 NSCLC
MDA-MB-231 breast = system: MDA-MB-231 breast
MDA-MB-435 = system: MDA-MB-435
NCI-H226 lung = system: NCI-H226 lung
SNB-75 CNS = system: SNB-75 CNS
SR leukemia = system: SR leukemia
786-0 renal = system: 786-0 renal
SF-539 CNS = system: SF-539 CNS

CC(C)(C)OC(=O)C1=C(C(=O)OC(C)(C)C)SC2(S1)C(C(=O)OC(C)(C)C)=C(C(=O)OC(C)(C)C)Sc1c2ssc1=O
TGI (OVCAR-8 ovarian): > 100 µM | TGI (KM12 colon): > 100 µM | TGI (EKVX NSCLC): > 100 µM | TGI (IGROV1 ovarian): > 100 µM | TGI (MALME-3M melanoma): > 100 µM | TGI (SK-MEL-5 melanoma): > 100 µM | TGI (LOX IMVI melanoma): > 100 µM | TGI (HCT-15 colon): > 100 µM | TGI (NCI-H522 lung): > 100 µM | TGI (HCC-2998 colon): > 100 µM | TGI (HL-60(TB) leukemia): > 100 µM | TGI (SN12C renal): > 100 µM | TGI (U251 CNS): > 100 µM | TGI (BT-549 breast): > 100 µM | TGI (MDA-N): > 100 µM | TGI (SK-MEL-2 melanoma): > 100 µM | TGI (DU-145 prostate): > 100 µM | TGI (UACC-257 melanoma): > 100 µM | TGI (COLO 205 colon): > 100 µM | TGI (M14 melanoma): > 100 µM | TGI (OVCAR-4 ovarian): > 100 µM | TGI (NCI-H23 lung): > 100 µM | TGI (CCRF-CEM leukemia): > 100 µM | TGI (OVCAR-3 ovarian): > 100 µM | TGI (ACHN renal): > 100 µM | TGI (HOP-62 NSCLC): > 100 µM | TGI (K-562 leukemia): > 100 µM | TGI (HS 578T breast): > 100 µM | TGI (SK-OV-3 ovarian): > 100 µM | TGI (SW-620 colon): > 100 µM | TGI (RPMI-8226 leukemia): > 100 µM | TGI (SK-MEL-28 melanoma): > 100 µM | TGI (PC-3 prostate): > 100 µM | TGI (TK-10 renal): > 100 µM | TGI (SF-295 CNS): > 100 µM | TGI (UO-31 renal): > 100 µM | TGI (A498 renal): > 100 µM | TGI (SF-268 CNS): > 100 µM | TGI (RXF 393 renal): > 100 µM | TGI (HCT-116 colon): > 100 µM | TGI (HOP-92 NSCLC): > 100 µM | TGI (NCI-H460 lung): > 100 µM | TGI (UACC-62 melanoma): > 100 µM | TGI (MOLT-4 leukemia): 95.9 µM | TGI (OVCAR-5 ovarian): > 100 µM | TGI (HT29 colon): > 100 µM | TGI (MCF7 breast): > 100 µM | TGI (SNB-19 CNS): > 100 µM | TGI (T-47D breast): > 100 µM | TGI (CAKI-1 renal): > 100 µM | TGI (NCI/ADR-RES ovarian): > 100 µM | TGI (A549 NSCLC): > 100 µM | TGI (MDA-MB-231 breast): > 100 µM | TGI (MDA-MB-435): > 100 µM

O=[N+]([O-])c1ccc(Cl)cc1C1ON=C(c2ccccc2)N1C12CC3CC(CC(C3)C1)C2 (centres undefined)
TGI (EKVX NSCLC): > 100 µM | TGI (IGROV1 ovarian): > 100 µM | TGI (MALME-3M melanoma): > 100 µM | TGI (SK-MEL-5 melanoma): > 100 µM | TGI (LOX IMVI melanoma): > 100 µM | TGI (HCT-15 colon): > 100 µM | TGI (NCI-H522 lung): > 100 µM | TGI (HCC-2998 colon): > 100 µM | TGI (HL-60(TB) leukemia): > 100 µM | TGI (SN12C renal): > 100 µM | TGI (U251 CNS): > 100 µM | TGI (MDA-N): > 100 µM | TGI (SK-MEL-2 melanoma): > 100 µM | TGI (DU-145 prostate): > 100 µM | TGI (UACC-257 melanoma): > 100 µM | TGI (COLO 205 colon): > 100 µM | TGI (M14 melanoma): > 100 µM | TGI (OVCAR-4 ovarian): > 100 µM | TGI (NCI-H23 lung): > 100 µM | TGI (CCRF-CEM leukemia): > 100 µM | TGI (OVCAR-3 ovarian): > 100 µM | TGI (ACHN renal): > 100 µM | TGI (HOP-62 NSCLC): > 100 µM | TGI (NCI-H226 lung): > 100 µM | TGI (SNB-75 CNS): > 100 µM | TGI (K-562 leukemia): > 100 µM | TGI (HS 578T breast): > 100 µM | TGI (SR leukemia): > 100 µM | TGI (SK-OV-3 ovarian): > 100 µM | TGI (RPMI-8226 leukemia): > 100 µM | TGI (SK-MEL-28 melanoma): > 100 µM | TGI (PC-3 prostate): > 100 µM | TGI (TK-10 renal): > 100 µM | TGI (SF-295 CNS): > 100 µM | TGI (UO-31 renal): > 100 µM | TGI (A498 renal): > 100 µM | TGI (SF-268 CNS): > 100 µM | TGI (RXF 393 renal): > 100 µM | TGI (HCT-116 colon): > 100 µM | TGI (HOP-92 NSCLC): > 100 µM | TGI (NCI-H460 lung): > 100 µM | TGI (UACC-62 melanoma): > 100 µM | TGI (MOLT-4 leukemia): > 100 µM | TGI (OVCAR-5 ovarian): > 100 µM | TGI (HT29 colon): > 100 µM | TGI (MCF7 breast): > 100 µM | TGI (SNB-19 CNS): > 100 µM | TGI (T-47D breast): > 100 µM | TGI (CAKI-1 renal): > 100 µM | TGI (NCI/ADR-RES ovarian): > 100 µM | TGI (A549 NSCLC): > 100 µM | TGI (786-0 renal): > 100 µM | TGI (MDA-MB-231 breast): > 100 µM | TGI (MDA-MB-435): > 100 µM | TGI (SF-539 CNS): > 100 µM

Source: PubChem BioAssay (NCI)
